# According to patent EP2787958B1, “CHELIDONIUM MAJUS EXTRACTS AND THEIR USE IN THE TREATMENT OF SKIN DISORDERS AND PROMOTION OF SKIN REGENERATION” (priority 2011, dated 2013):
# Read-outs that look alike come from different tables or passages of the source.
# Columns and labels:
# interleukin 1β (IL-1β) = experiment: Inflammatory cytokines in cell supernatant (Mosaic ELISA microarray): IL-1β; format: cell-based, Human; conditions: for IL-1β ng/(ml* No. of cells from photo) ± SD: 24 hours
# Procedure: (§1) The inflammatory cytokines, CD40 ligand (CD40L), interferon γ (INF-γ), interleukin 1α (IL-1α), interleukin 1β (IL-1β), interleukin 6 (IL-6), interleukin 8 (IL-8), interleukin 17 (IL-17) and tumour necrosis factor α (TNF-α) were determined qualitatively and quantitatively. Each measurement was performed in duplicate using a Mosaic™ ELISA protein microarray assay system from R&D System in accordance with the supplier's instructions. Furthermore, with the aim of obtaining a correlation model between light signal intensity and cytokine concentration, a calibration curve using 6 concentrations was performed for each of them. Analysis of the data was performed using the dedicated Q-View™ Imager software package from Quansys Biosciences
# interleukin 6 (IL-6) = experiment: Inflammatory cytokines in cell supernatant (Mosaic ELISA microarray): IL-6; format: cell-based, Human; conditions: for IL-6 ng/(ml* No. of cells from photo) ± SD: 24 hours; for IL-6 production (effect in words): 1-10 µM
# Procedure: as §1
# [1] = Anti-radical activity (decay of the DPPH radical); format: biochemical; conditions: for Anti-radical (skin protective): 24 hours
# Procedure: With regard to assays aimed at evaluating anti-radical activity, a chemical test was used where the decay of the diphenylpicrylhydrazyl (DPPH) radical is assessed in the absence or in the presence of the test substances. Indeed, the DPPH radical is used to test the ability of substances to act as free radical scavengers. DPPH in solution has a purple colour with a maximum absorbance peak at 517 nm which changes to yellow-colourless when this radical extracts a hydrogen atom from a radical scavenger to give rise to the reduced form DPPH-H. The assay has been conducted in quadruplicate in 96 well microplates (SARSTEDT Tissue Culture Plate 96-well flat bottom cell+). 50 µl of an ethanol solution of the test substance at 2X concentration and then 50 µl of a 200 µM solution of DPPH (MW 168,18, Aldrich 2,2-di(4-tert-octylphenyl)-1-picrylhydrazyl, free radical Lot# MKBF7574V Cat N° 257621-100 mg) have been added to each well of the microplate. A positive control consisting of 0.1 mM vitamin C and a negative control consisting of ethanol alone were included in each microplate. After 30 minutes from the addition of DPPH, photographs of the plates were taken (Canon PowerShot A610 5.0 Mpixels) and read spectrophotometrically at 530 nm.
# Based on the analysis of the results reported in Table 9, some substances were selected for further characterisation of their anti-radical activity. For the selected substances, dose-activity curves were obtained and the IC50 value were computed using a non-linear regression model with the Hill equation at variable slope. Such substances had been selected due to both their anti-radical potential and the easiness of their isolation/production. The selection of substances was made in view of cosmetics applications. Moreover their activity on human dermal fibroblasts (HDF) is expected to be useful also for the development of dermatological medications. The selected substances are discussed below.
# HDF cells [2] = experiment: Summary of uses and toxic effects deduced from the cell assays (Table 1); format: cell-based, Human; conditions: for Anti-fibrotic (prevention of scar formation, also from acne) / Cytoprotective (antioxidant, anti-inflammatory and anti-ageing; useful also in the treatment of acne) / Cytotoxic / Irritant / Wound-healing: 24 hours
# Procedure: Antiradical (skin protective): this is deduced from the free radical scavenger effects.
# Revitalizing: this is deduced from the increased mitochondrial dehydrogenase effect.
# Cytoprotective, with regard to oxidative damage (antioxidant, anti-inflammatory and anti-ageing): this is deduced from antagonising the stimulation of IL-1β and/or IL-6 induced by 100 µM H2O2 and from the absence of changes in cell morphology similar to the ones due to cell senescence.
# Wound healing: this is deduced from the effect of inhibiting the production of IL-1β and by the effect of stimulating cell proliferation under standard growth conditions.
# Cytotoxicity: this is deduced from the effect of reducing mitochondrial dehydrogenase activity or from the presence of morphologies characteristic of cell senescence.
# Irritation: this is deduced from the effect of increased production of IL-6 and/or IL-1β under standard growth conditions.
# Said uses in the fields of medicine and cosmetics or the toxic effects of the substances of the invention at a given dosage, for 24 hours, are summarized in Table 1 below.
# [3] = tested on: collagen produced by HDF cells; experiment: Quantity of collagen produced by the cells (elution of Sirius Red)
# [4] = tested on: Human dermal fibroblasts (HDF); experiment: Mitochondrial dehydrogenase activity (WST-1 formazan assay) in HDF cells; conditions: for Revitalizing agent: 24 hours; for activity at 1 µM / activity at 10 µM: Homo sapiens, Fibroblast, read-out: % mitochondrial dehydrogenase activity ± SD
# HDF cells [5] = experiment: Evaluation of cell proliferation (counting of Sirius Red stained cells in photographs); conditions: 24 hours
# [6] = Dose 1 µm (coptisine: 1 pm [sic])
compound,measurement,setting,value
COc1ccc2c(c1OC)CN1CCc3cc4c(cc3[C@@H]1C2)OCO4 [canadine],IL-1β production (effect in words),"interleukin 1β (IL-1β); 1 µM, 34 ng/ml TGF-β1",antagonizes the production of IL-1β
same,IL-1β ng/(ml* No. of cells from photo) ± SD,"interleukin 1β (IL-1β); 1 µM, 34 ng/ml TGF-β1",116±19 ng/(ml* No. of cells from photo)
same,IL-1β production (effect in words),"interleukin 1β (IL-1β); 1 µM, 100 µM H2O2",antagonizes the production of IL-1β
same,IL-1β ng/(ml* No. of cells from photo) ± SD,"interleukin 1β (IL-1β); 1 µM, 100 µM H2O2",90±3 ng/(ml* No. of cells from photo)
same,IL-1β ng/(ml* No. of cells from photo) ± SD,"interleukin 1β (IL-1β); 1 µM, Standard conditions",81±2 ng/(ml* No. of cells from photo)
same,IL-1β production (effect in words),"interleukin 1β (IL-1β); 1 µM, standard conditions",inhibits the production of IL-1β
same,IL-1β production (effect in words),"interleukin 1β (IL-1β); 10 µM, 34 ng/ml TGF-β1",antagonizes the production of IL-1β
same,IL-1β ng/(ml* No. of cells from photo) ± SD,"interleukin 1β (IL-1β); 10 µM, 34 ng/ml TGF-β1",173±14 ng/(ml* No. of cells from photo)
same,IL-1β production (effect in words),"interleukin 1β (IL-1β); 10 µM, 100 µM H2O2",antagonizes the production of IL-1β
same,IL-1β ng/(ml* No. of cells from photo) ± SD,"interleukin 1β (IL-1β); 10 µM, 100 µM H2O2",132±138 ng/(ml* No. of cells from photo)
same,IL-1β ng/(ml* No. of cells from photo) ± SD,"interleukin 1β (IL-1β); 10 µM, Standard conditions",109±1 ng/(ml* No. of cells from photo)
same,IL-1β production (effect in words),"interleukin 1β (IL-1β); 10 µM, standard conditions",stimulates the production of IL-1β
same,IL-6 ng/(ml* No. of cells from photo) ± SD,"interleukin 6 (IL-6); 1 µM, 34 ng/ml TGF-β1",451±121 ng/(ml* No. of cells from photo)
same,IL-6 ng/(ml* No. of cells from photo) ± SD,"interleukin 6 (IL-6); 1 µM, 100 µM H2O2",584±19 ng/(ml* No. of cells from photo)
same,IL-6 ng/(ml* No. of cells from photo) ± SD,"interleukin 6 (IL-6); 1 µM, Standard conditions",405±8 ng/(ml* No. of cells from photo)
same,IL-6 ng/(ml* No. of cells from photo) ± SD,"interleukin 6 (IL-6); 10 µM, 34 ng/ml TGF-β1",724±43 ng/(ml* No. of cells from photo)
same,IL-6 ng/(ml* No. of cells from photo) ± SD,"interleukin 6 (IL-6); 10 µM, 100 µM H2O2",718±63 ng/(ml* No. of cells from photo)
same,IL-6 ng/(ml* No. of cells from photo) ± SD,"interleukin 6 (IL-6); 10 µM, Standard conditions",508±43 ng/(ml* No. of cells from photo)
same,IL-6 production (effect in words),interleukin 6 (IL-6); 34 ng/ml TGF-β1,antagonizes the production of IL-6
same,IL-6 production (effect in words),interleukin 6 (IL-6); 100 µM H2O2,antagonizes the production of IL-6
same,IL-6 production (effect in words),interleukin 6 (IL-6); standard conditions,inhibits the production of IL-6
same,% DPPH activity,"[1]; 1 mM, 30 minutes",103%
same,Anti-radical (skin protective),[1]; [6],No
same,Anti-radical (skin protective),[1]; Dose 10 µm,No
same,"Anti-fibrotic (prevention of scar formation, also from acne)",HDF cells [2]; [6],"Yes (↓collagen, ↓IL-6, ↓IL-1β)"
same,"Cytoprotective (antioxidant, anti-inflammatory and anti-ageing; useful also in the treatment of acne)",HDF cells [2]; [6],"Yes (↓IL-6, ↓IL-1β)"
same,Cytotoxic,HDF cells [2]; [6],No
same,Irritant,HDF cells [2]; [6],No
same,Wound-healing,HDF cells [2]; [6],Yes (↓IL-1β)
same,"Anti-fibrotic (prevention of scar formation, also from acne)",HDF cells [2]; Dose 10 µm,No
same,"Cytoprotective (antioxidant, anti-inflammatory and anti-ageing; useful also in the treatment of acne)",HDF cells [2]; Dose 10 µm,No
same,Cytotoxic,HDF cells [2]; Dose 10 µm,No
same,Irritant,HDF cells [2]; Dose 10 µm,Yes (↓IL-1β)
same,Wound-healing,HDF cells [2]; Dose 10 µm,No
same,concentrations at which no toxic (cytotoxic and irritant) effects are shown,HDF cells [2]; exposure for 24 hours,less than or equal to 1 µM
same,collagen production (effect in words),"[3]; 1 µM, standard conditions",no evident effect on the modulation of collagen production
same,collagen production (effect in words),"[3]; 10 µM, standard conditions",collagen production stimulation effect
same,collagen production (effect in words),"[3]; 1-10 µM (1 µM and 10 µM), 34 ng/ml TGF-β1",antagonizes the stimulation of collagen induced by 34 ng/ml TGF-β1
same,collagen production (effect in words),"[3]; 1-10 µM (1 µM and 10 µM), 100 µM H2O2",inhibits collagen production
same,concentrations below which no significant effects on mitochondrial dehydrogenase activity are shown,[4],below 0.1 µM
same,Revitalizing agent,[4]; [6],Yes
same,Revitalizing agent,[4]; Dose 10 µm,Yes
same,activity at 1 µM,[4]; 18 h,127 ± 3.64%
same,activity at 10 µM,[4]; 18 h,130 ± 32.4%
same,activity at 1 µM,[4]; 42 h,101 ± 10.6%
same,activity at 10 µM,[4]; 42 h,124 ± 5.34%
same,activity at 1 µM,[4]; 46 h,106 ± 5.25%
same,activity at 10 µM,[4]; 46 h,130 ± 11.1%
same,mitochondrial dehydrogenase activity (effect in words),"[4]; between 0.1 and 100 µM, exposure time 18 and 42 h",tendency to increase in a dose-dependent manner
same,mitochondrial dehydrogenase activity (effect in words),"[4]; fibroblast cells, higher doses",inhibit mitochondrial dehydrogenase activity
same,mitochondrial dehydrogenase activity (effect in words),"[4]; fibroblast cells, low dosage",stimulate mitochondrial dehydrogenase activity
same,No. of cells from photo ± SD,"HDF cells [5]; 1 µM, 34 ng/ml TGF-β1",206±40
same,No. of cells from photo ± SD,"HDF cells [5]; 1 µM, 100 µM H2O2",253±32
same,No. of cells from photo ± SD,"HDF cells [5]; 1 µM, Standard conditions",207±12
same,No. of cells from photo ± SD,"HDF cells [5]; 10 µM, 34 ng/ml TGF-β1",138±3
same,No. of cells from photo ± SD,"HDF cells [5]; 10 µM, 100 µM H2O2",188±25
same,No. of cells from photo ± SD,"HDF cells [5]; 10 µM, Standard conditions",138±5
"O=C1O[C@H]([C@@H](O)CO)C(O)=C1O [vitamin C, reference compound]",% DPPH activity,"[1]; 0.1 mM, positive control",0%
